Laboratory results: ChEMBL document CHEMBL1201862, “PubChem BioAssay data set” (2004)
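96-well plates; 48 h exposure; 5 concentrations. Endpoints by linear interpolation between flanking doses. Not reached: highest tested concentration assigned. GI50 is the concentration that inhibits growth by half.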 Activity calls are given as the source filed them. No stated cut-off is given here; in the data, active = GI50 up to about 1.1 µM and inactive = higher.

What was measured:
Experiment in all cases: DTP human tumour cell line panel, 48 h
SNB-78 = test system: SNB-78
HOP-18 = test system: HOP-18
RXF 631 = test system: RXF 631
DMS-273 = test system: DMS-273
XF498 = test system: XF498
DLD-1 = test system: DLD-1
LXFL 529 = test system: LXFL 529
M19-MEL = test system: M19-MEL
DMS-114 = test system: DMS-114

Measured: GI50

Clc1ccc2c(c1)[nH]c1c2nc2sccn21
inactive: SNB-78 > 100 µM | HOP-18 > 100 µM | RXF 631 > 100 µM | DMS-273 > 100 µM | XF498 > 100 µM | DLD-1 > 100 µM | LXFL 529 > 100 µM | M19-MEL > 100 µM | DMS-114 > 100 µM

COc1ccccc1NC(=O)CC(=O)n1nc(-c2ccccc2)c(/N=N/c2ccccc2[N+](=O)[O-])c1-c1ccccc1
inactive: SNB-78 > 100 µM | HOP-18 > 100 µM | RXF 631 > 100 µM | DMS-273 > 100 µM | XF498 > 100 µM | DLD-1 42.3 µM | LXFL 529 83.2 µM | M19-MEL 51.2 µM | DMS-114 25.6 µM
